According to article PMC5498548:
Values after ≈ are worked out from the molar mass of the structure shown. Values joined by “and” are separate entries in the source; they are usually repeats but may differ in a detail not shown here. Identical values can stand only once. Like-named read-outs stand apart in the source and are kept apart here.

Tests used:
IdeR [1] = target: T1, IdeR (Mycobacterium tuberculosis, UniProt P9WMH1); assay: biochemical; conditions: EMSA
IdeR [2] = target: T1, IdeR; assay: EMSA competition experiments with increasing labeled DNA; assay type: biochemical; conditions: DNA 0.8 pmoles to 12.8 pmoles
M. tuberculosis = assay: Resazurin microtiter assay (REMA) whole cell MIC90 in broth culture; assay type: cell-based, Mycobacterium tuberculosis; conditions: MB7H9 medium, Mean ± S.E., three experiments; for MIC90: Mycobacterium tuberculosis, read-out: MIC90 of compounds against M. tuberculosis
[3] = tested on: THP-1 (human monocytic macrophage cell line); assay: Cytotoxicity by REMA in THP-1; assay type: cell-based; conditions: for IC50: Homo sapiens, THP-1, 1-200 µg/ml, read-out: Inhibition in THP1 (IC50 in µg/ml)
Method: (§1) The cytotoxicity of the compounds was determined by employing REMA using various mammalian cell lines such as THP-1 (human monocytic macrophage cell line), HEK (Human Embryonic Kidney cell line), MDCK (Madine darby canine kidney cell line) and HepG2 (Human hepatocellular carcinoma cell line). 1 × 10^4 cells/well were employed in a sterilized 96-well plate containing serial dilutions of compounds ranging from 1 µg/ml to 200 µg/ml concentration, in their respective media (RPMI for THP-1, DMEM for HEK and HepG2 and MEM for MDCK) with 10% fetal bovine serum and Antibiotic-Antimycotic mix (Invitrogen Corporation, Carlsbad, California, USA). IC50 is defined as the concentration of the compound that causes 50% reduction in the fluorescence intensity indicating 50% viable cells. IC50 values were determined from the results of at least two independent tests and Mean ± S.E.M was calculated from the inhibition curve using GraphPad Prism 5.

[4] = tested on: HEK (Human Embryonic Kidney cell line); assay: Cytotoxicity by REMA in HEK; assay type: cell-based; conditions: 1-200 µg/ml; for IC50: Homo sapiens, read-out: Inhibition in HEK (IC50 in µg/ml)
Method: as §1

[5] = tested on: MDCK (Madine darby canine kidney cell line); assay: Cytotoxicity by REMA in MDCK; assay type: cell-based; conditions: 1-200 µg/ml; for IC50: Canis lupus familiaris, MDCK, read-out: Inhibition in MDCK (IC50 in µg/ml)
Method: as §1

[6] = tested on: HepG2 (Human hepatocellular carcinoma cell line); assay: Cytotoxicity by REMA in HepG2; assay type: cell-based; conditions: for IC50: Homo sapiens, HepG2, 1-200 µg/ml, read-out: Inhibition in HepG2 (IC50 in µg/ml)
Method: as §1

[7] = 0.35 µg IdeR, 0.8 picomoles labeled DNA, 200 µM NiSO4, inhibitor 0.4-100 µg/ml, read-out: IC50 (µg/ml) (converted)
[8] = same values given in µM, read-out: IC50
[9] = 0.35 µg IdeR, 0.8 picomoles labeled DNA, 200 µM NiSO4, inhibitor 0.4-100 µg/ml

T1 sequence (P9WMH1 whole entry, looked up): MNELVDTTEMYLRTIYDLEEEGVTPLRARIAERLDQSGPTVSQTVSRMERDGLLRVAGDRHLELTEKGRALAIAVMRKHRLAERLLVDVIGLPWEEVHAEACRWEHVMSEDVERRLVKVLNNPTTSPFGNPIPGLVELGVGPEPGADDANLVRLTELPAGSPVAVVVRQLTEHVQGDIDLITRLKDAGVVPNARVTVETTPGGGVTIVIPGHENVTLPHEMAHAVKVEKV

Row | Molecule | IC50 (IdeR [1]; [7]) | IC50 (IdeR [1]; [8]) | IC50 (IdeR [1]; [9]) | further results
1 | O=S(=O)(O)c1ccc(O)c(/N=N/c2ccc(O)cc2O)c1 [IS-2, Benzensulfonic acid, 3-[(2,4-dihydroxyphenyl)azo]-4-hydroxy] | 17.4 µM and 17.7 µM | 16.3 µM |  | 
2 | Nc1ccc(-c2nc3ccccc3s2)cc1S(=O)(=O)O [Compound I-8, 2amino-5-(1,3-benzothiazol-2-yl) benzene sulfonic acid ammoniate] | ≤ 81.6 µM and 78 µM | 74 µM |  | mode of inhibition in competition with DNA (IdeR [2]): competing with DNA; MIC90 of compounds against M. tuberculosis (µg/ml) (M. tuberculosis): no inhibition
3 | COc1ccccc1N=Nc1cc(S(=O)(=O)O)c2ccccc2c1O [IS-59] |  | 48.9 µM | 18.64 ± 1.532 µg/mL | 
4 | O=C(NN1C(=O)C=C(O)C1=Cc1ccccc1)c1ccccc1 [Compound I-112, N-[2-benzylidene-3-hydroxy-5-oxo-2,5-dihydro-1H-pyrrol-1-yl]benzamide] | 170 µM | 170 µM |  | 
5 | O=S(=O)(O)c1cccc2cccc(N=Nc3c(O)ccc4ccccc34)c12 [IS-6, 8-[-(2-hydroxynaphthalen-1-yl)diazenyl]naphthalene-1-sulfonic acid] | 57.2 µM | 54 µM |  | 
6 | Nc1ccc(-c2nc3ccccc3s2)cc1 [IS-54, 4-(1,3-benzothiazol-2-yl)aniline] | 49.5 µM | 49.6 µM |  | MIC90 of compounds against M. tuberculosis (M. tuberculosis): 84.8 ± 8 µg/mL; MIC90 (M. tuberculosis): 84.8 µg/mL (≈ 375 µM); Inhibition in THP1 (IC50 in µg/ml) ([3]; 1-200 µg/ml): slight toxicity; IC50 [3]: 182 ± 5.2 µg/mL (≈ 802 µM); Inhibition in HEK (IC50 in µg/ml) [4]: slight toxicity; IC50 [4]: 161 ± 4.22 µg/mL (≈ 712 µM); Inhibition in MDCK (IC50 in µg/ml) [5]: slight toxicity; IC50 [5]: 174 ± 6.4 µg/mL (≈ 770 µM); Inhibition in HepG2 (IC50 in µg/ml) ([6]; 1-200 µg/ml): slight toxicity; IC50 [6]: 167 ± 3.78 µg/mL (≈ 740 µM)
7 | Cc1cc(=O)oc2c(CNC(C)C(=O)O)cc(O)cc12 (centres unmarked) [Compound I-38] |  | 361 µM | 100 ± 3.176 µg/mL | 
8 | Cc1ccccc1N=Nc1ccc2c(S(=O)(=O)[O-])cccc2c1O.[Na+] [Compound I-90, 1-Naphthalenesulfonic acid,5-hydroxy-6-[(2-methylphenyl)azo]-monosodium salt] |  | 124 µM | 45.27 ± 1.3 µg/mL | 
9 | CO[C@H]1/C=C/O[C@@]2(C)Oc3c(C)c(O)c4c(O)c(c(/C=N/N5CCN(C)CC5)c(O)c4c3C2=O)NC(=O)/C(C)=C\C=C\[C@H](C)[C@H](O)[C@@H](C)[C@@H](O)[C@@H](C)[C@H](OC(C)=O)[C@@H]1C [Rifampicin, reference compound] |  |  |  | MIC90 (M. tuberculosis): 0.05 to 0.2 µg/mL (≈ 0.0608 to 0.243 µM); IC50 [3]: > 100 µg/mL; IC50 [4]: > 100 µg/mL; IC50 [5]: > 100 µg/mL; IC50 [6]: > 100 µg/mL
10 | O=S(=O)(Nc1ccc(Cl)cc1NS(=O)(=O)c1ccccc1)c1ccccc1 [Compound I-85, N,N`-(4-chlorobenzene-1,2-diyl)dibenzenesulfonamide] | 67.2 µM | 67.1 µM |  | 
11 | O=C1OC(C=Cc2ccccc2)=NC1=Cc1cccc([N+](=O)[O-])c1 [Compound I-18, 4-(3-nitrobenzylidene)-2-[2-phenylethenyl]-1,3-oxazol5(4H)-one] | 43.7 µM | 43.7 µM |  | 
12 | NC(CC(=O)O)C(=O)OCc1cccc(/N=N/c2ccccc2)c1 (centres unmarked) [Compound I-21] | 16.7 µM | 16.8 µM |  | mode of inhibition in competition with DNA (IdeR [2]): competing with DNA
13 | O=S(=O)([O-])c1cc(N=Nc2c(O)ccc3ccccc23)c2c(S(=O)(=O)[O-])cccc2c1.[Na+].[Na+] [IS-9, 8-[-(2-hydroxynaphthalen-1-yl)diazenyl]naphthalene-1,6-disulfonic acid, disodium salt] |  | 27.6 µM | 13.9 ± 7.37 µg/mL | 
14 | 4-oxo-3-({4-[-(4-sulfophenyl)diazenyl]phenyl}hydrazono)-3,4-dihydro-1-naphtalenesulfonic acid [IS-7] |  | 57.5 µM | 32.13 ± 1.56 µg/mL | 
15 | Cc1ccccc1NC(=O)Nc1cccc(-c2nnc(Cc3ccc4c(c3)OCO4)o2)c1 [IA8, 3-[3-[5-(1,3-benzodioxol-5-ylmethyl)-1,3,4-oxadiazol-2-yl]phenyl]-1-(o-tolyl) urea] | 143 µM |  |  | 
16 | O=C(NN=c1ccc([N+](=O)[O-])c[nH]1)Nc1ccc(-c2ccccc2)cc1 [Compound I-89, N-(biphenyl-4-yl)-2-(5-nitropyridin-2(1H)-ylidene)hydrazinecarboxamide] | 83.3 µM | 83.4 µM |  | 
